Assay results as given in article PMC11648915, “Identification and development of TRPM4 antagonists to counteract neuronal excitotoxicity” (iScience, 2024).
“And” between values parts separate entries of the source, which are not always exact repeats. Equal values may be shown once. Read-outs that look alike come from different tables or passages of the source.

How the values were obtained:
[1] = target: human TRPM4 (Homo sapiens, UniProt Q8TD43); test: QPatch automated patch clamp on TRPM4-expressing HEK293 cells; assay type: cell-based; details: hsTRPM4-expressing HEK293 cells; for EC50: read-out: TRPM4 EC50 (potentiator activity)
Protocol: QPatchHTX, an automated electrophysiology platform, was used in single hole mode. One day before use human TRPM4- or TRPM5-expressing HEK293 cells were seeded in a T75 flask at a density of 53k cells per cm^2 and at passages < 23. […] The extracellular solution was (in mM): CaCl2 (7), MgCl2 (2), KCl (5), HEPES (10), NaCl (70), NMDG (70); pH 7.4 with NaOH. The intracellular solution was (in mM): HEPES (10), NMDG (100), NaCl (50), EGTA (20), MgCl2 (1), CaCl2 (21); pH 7.2 with HCl. […] This protocol was repeated every 7 seconds. […] FFA was used as reference compound and applied cumulatively with each concentration incubating at a minimum of 20 voltage protocol runs (140 seconds) with the current after addition of FFA being calculated as full block. […] Each compound was measured at least 3 time independently.

[2] = target: T1, human TRPM5 (Homo sapiens, UniProt Q9NZQ8); test: QPatch automated patch clamp on TRPM5-expressing HEK293 cells; assay type: cell-based; details: hsTRPM5-expressing HEK293 cells
T1 sequence (Q9NZQ8 1-1165): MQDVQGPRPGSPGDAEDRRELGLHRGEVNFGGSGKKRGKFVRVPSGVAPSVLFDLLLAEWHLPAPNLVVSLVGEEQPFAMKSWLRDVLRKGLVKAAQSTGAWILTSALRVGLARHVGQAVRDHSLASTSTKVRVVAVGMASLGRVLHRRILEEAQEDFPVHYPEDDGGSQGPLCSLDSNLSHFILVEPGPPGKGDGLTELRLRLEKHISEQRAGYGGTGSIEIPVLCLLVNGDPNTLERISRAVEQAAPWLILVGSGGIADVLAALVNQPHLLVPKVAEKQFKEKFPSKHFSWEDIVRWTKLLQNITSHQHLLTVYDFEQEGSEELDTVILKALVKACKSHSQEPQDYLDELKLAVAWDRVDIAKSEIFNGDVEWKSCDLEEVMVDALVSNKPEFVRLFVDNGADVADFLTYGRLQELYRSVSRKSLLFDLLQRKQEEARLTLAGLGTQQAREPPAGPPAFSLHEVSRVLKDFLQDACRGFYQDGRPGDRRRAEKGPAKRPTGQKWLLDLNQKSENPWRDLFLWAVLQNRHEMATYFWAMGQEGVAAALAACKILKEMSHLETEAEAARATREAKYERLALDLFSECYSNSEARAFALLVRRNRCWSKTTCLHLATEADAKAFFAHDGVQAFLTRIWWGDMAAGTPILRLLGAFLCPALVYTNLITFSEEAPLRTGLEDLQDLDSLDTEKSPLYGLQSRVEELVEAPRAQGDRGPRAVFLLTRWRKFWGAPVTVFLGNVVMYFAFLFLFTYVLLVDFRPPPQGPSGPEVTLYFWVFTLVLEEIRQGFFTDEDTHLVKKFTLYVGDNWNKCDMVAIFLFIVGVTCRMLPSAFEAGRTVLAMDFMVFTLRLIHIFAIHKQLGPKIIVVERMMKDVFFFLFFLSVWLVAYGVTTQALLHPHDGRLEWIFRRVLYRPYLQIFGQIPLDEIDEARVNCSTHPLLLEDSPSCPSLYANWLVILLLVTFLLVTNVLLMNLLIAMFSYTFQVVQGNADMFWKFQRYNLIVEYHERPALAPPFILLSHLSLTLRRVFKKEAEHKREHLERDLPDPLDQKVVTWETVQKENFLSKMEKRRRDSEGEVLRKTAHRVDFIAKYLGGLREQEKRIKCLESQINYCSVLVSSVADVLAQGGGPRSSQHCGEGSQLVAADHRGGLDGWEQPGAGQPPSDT
From the text: The counter screening phase involved the inclusion of hsTRPM5-expressing HEK293 cells, as closest homologue, and the parental HEK293 cell line to evaluate selectivity. […] Based on categorization of biological activity, mass spectrometry quality control, and aspects of medicinal chemistry, we prioritized 144 selective hsTRPM4 compounds. These compounds were then subjected to automated patch clamp electrophysiology measurements (QPatch[58]) to evaluate their activity profiles and IC50 values (Figures 1A, S1, and S2).
QPatchHTX, an automated electrophysiology platform, was used in single hole mode. One day before use human TRPM4- or TRPM5-expressing HEK293 cells were seeded in a T75 flask at a density of 53k cells per cm^2 and at passages < 23. For QPatch assays, cells were harvested and re-suspended in SFM (Gibco, 11686029). The extracellular solution was (in mM): CaCl2 (7), MgCl2 (2), KCl (5), HEPES (10), NaCl (70), NMDG (70); pH 7.4 with NaOH. The intracellular solution was (in mM): HEPES (10), NMDG (100), NaCl (50), EGTA (20), MgCl2 (1), CaCl2 (21); pH 7.2 with HCl. After break-in, channels were consistently open and current through the channels could be observed at a voltage ramp from –100 mV to +100 mV over 500 ms. This protocol was repeated every 7 seconds. After saline and vehicle application, the channel was desensitized and residual current was used as baseline. FFA was used as reference compound and applied cumulatively with each concentration incubating at a minimum of 20 voltage protocol runs (140 seconds) with the current after addition of FFA being calculated as full block. […] Each compound was measured at least 3 time independently.

[3] = In vivo pharmacokinetics after single i.p. or i.v. dose; details: female, C57BL/6J, mouse
Protocol: Next, to assess in vivo availability of the Series 1–3 compounds, we evaluated drug metabolism and pharmacokinetics (DMPK). We measured compound concentrations in plasma, heart, and brain at several time points after intraperitoneal (i.p.) or intravenous (i.v.) single-dose injections.
Half-life and bioavailability were calculated by noncompartmental analysis using the R package PK[84] (v1.3-6).

[4] = Microsome clearance (mouse); assay type: in vitro ADME; details: mouse liver microsomes, 45 min, NADPH
Protocol: (§1) Human or mouse liver microsomes were incubated with the test compound at a concentration of 1 μM for 45 min in the presence of cofactor (NADPH in excess). Samples were collected at various time points, and % remaining of test compound was determined using mass spectrometry (LC-MS/MS) to calculate hepatic clearance rate (L/h/kg).

[5] = Microsome clearance (human); assay type: in vitro ADME; details: human liver microsomes, 45 min, NADPH, read-out: Microsomes (h) clearance (converted)
Protocol: as §1

[6] = target: T2, CYP3A4 (Homo sapiens, UniProt P08684); test: CYP inhibition assay 3A4; assay type: in vitro ADME
T2 construct: purchased BD Gentest
Protocol: (§2) The half-maximal inhibitory concentration (IC50) for cytochrome P450 (CYP) enzymes was determined using an in vitro enzyme inhibition assay. Recombinant CYP enzymes or human liver microsomes from BD Gentest, in 0.1 M phosphate buffer pH 7.4, containing native CYP enzymes were incubated with the test compound at various concentrations (1, 3, 10 and 30 μM) and containing 0.5% DMSO and 0.1% BSA final concentrations. 1 mM of NADPH cofactor was added and the reaction was started by a rapid increase of temperature until 37°C.

[7] = target: potassium channel human Ether-a-go-go Related Gene (hERG) (Homo sapiens, UniProt Q12809); test: hERG channel inhibition; assay type: cell-based
From the text: We next used in vitro assays to test absorption, distribution, metabolism, excretion and toxicity (ADMET) parameters for selected compounds. We assessed compound absorption using parallel artificial membrane permeability (PAMPA) and Caco-2 cell permeability assays (cut-off criterion >2 × 10^−6 cm s^−1). […] To assess potential off-target activity of our compounds that could be relevant for safety in humans, we conducted comprehensive in vitro pharmacology using the commercially available and widely used SafetyScreen44 interaction panel[60] covering eight protein families.

[8] = target: T3, CYP2D6 (Homo sapiens, UniProt P10635); test: CYP inhibition assay 2D6; assay type: in vitro ADME
T3 construct: purchased BD Gentest
Protocol: as §2

[9] = Parallel Artificial Membrane Permeability Assay (PAMPA); assay type: in vitro ADME; details: pH not given; for Papp at 16 h, 200 μM: PAMPA, read-out: PAMPA perm.
Protocol: Parallel Artificial Membrane Permeability Assay (PAMPA) was performed using artificial lipid membrane layers to assess passive permeability of the test compound. Test compounds were diluted to 200 μM in system buffer at pH 5.0, 6.2 and 7.4. The solutions were filtered and 150 μL transferred to a High Sensitivity 96 well UV plate. This was analysed by UV as the reference plate. A 200 μL sample of the 200 μM solution was transferred to the ‘donor’ plate of the PAMPA pIon sandwich plate system. 200 μL of acceptor sink buffer was transferred to the ‘acceptor’ plate which had been previously treated with GIT-O lipid solution across the well filter. Donor and acceptor plates were sandwiched and kept in a humid environment at room temperature for 16 hours. On completion of the incubation the donor and acceptor plates were separated. 150 μL of solution was transferred from each of the donor and acceptor PAMPA sandwich plates into High Sensitivity 96 well UV plates for analysis by UV. at different time points. The concentration of the compound in the acceptor compartment was determined using mass spectrometry. The permeability coefficient (Papp) was calculated based on the rate of appearance of the compound in the acceptor compartment (nm/s).

[10] = Caco-2 permeability assay; assay type: in vitro ADME; details: human, heading: Caco-2 perm., direction not given
Protocol: Caco-2 permeability was evaluated using a cell-based assay with Caco-2 cells cultured on permeable membrane inserts. The test compound was added at 10 μM to the apical (donor) compartment, and samples were collected from the basolateral (receiver) compartment at 120 min. The test compound was also added at 10 μM to the basolateral (donor) compartment, and samples were collected from the apical (receiver) compartment at 120 min. The amount of the compound in both compartments was measured using mass spectrometry (LC-MS/MS). The permeability coefficient (Papp, nm/s) apical to basolateral and basolateral to apical, and an efflux ratio were calculated.

[11] = brain, ip, read-out: Brain half-life (converted)
[12] = brain, iv, read-out: Brain half-life (converted)
[13] = heart, ip, read-out: Heart half-life (converted)
[14] = heart, iv, read-out: Heart half-life (converted)
[15] = plasma, ip, read-out: Plasma half-life (converted)
[16] = plasma, iv, read-out: Plasma half-life (converted)

T3 sequence (P10635 whole entry): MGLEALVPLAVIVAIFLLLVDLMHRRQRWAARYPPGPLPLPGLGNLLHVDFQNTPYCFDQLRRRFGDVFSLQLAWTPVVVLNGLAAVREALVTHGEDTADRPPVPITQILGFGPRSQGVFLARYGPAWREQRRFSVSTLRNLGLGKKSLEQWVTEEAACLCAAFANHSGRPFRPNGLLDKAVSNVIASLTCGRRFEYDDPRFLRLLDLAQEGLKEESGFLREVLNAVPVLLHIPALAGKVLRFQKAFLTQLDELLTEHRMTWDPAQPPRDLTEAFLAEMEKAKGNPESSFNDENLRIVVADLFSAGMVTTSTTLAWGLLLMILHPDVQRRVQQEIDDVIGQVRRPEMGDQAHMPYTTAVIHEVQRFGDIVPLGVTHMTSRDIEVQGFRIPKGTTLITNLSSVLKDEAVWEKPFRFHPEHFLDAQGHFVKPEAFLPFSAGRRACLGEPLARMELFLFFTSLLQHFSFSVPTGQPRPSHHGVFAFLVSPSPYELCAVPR
T2 sequence (P08684 whole entry): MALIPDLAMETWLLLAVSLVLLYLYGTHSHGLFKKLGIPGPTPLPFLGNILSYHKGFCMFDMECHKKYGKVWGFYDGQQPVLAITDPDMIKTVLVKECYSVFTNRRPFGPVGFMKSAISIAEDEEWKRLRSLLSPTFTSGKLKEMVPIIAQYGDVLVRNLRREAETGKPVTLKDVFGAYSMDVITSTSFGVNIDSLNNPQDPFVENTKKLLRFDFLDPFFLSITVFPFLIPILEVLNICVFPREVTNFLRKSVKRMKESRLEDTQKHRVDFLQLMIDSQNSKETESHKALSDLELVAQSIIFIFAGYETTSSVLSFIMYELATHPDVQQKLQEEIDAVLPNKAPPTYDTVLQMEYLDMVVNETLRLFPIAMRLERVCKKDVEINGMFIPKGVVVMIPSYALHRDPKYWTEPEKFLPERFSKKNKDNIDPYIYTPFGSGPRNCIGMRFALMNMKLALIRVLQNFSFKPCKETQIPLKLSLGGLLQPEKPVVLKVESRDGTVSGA
human TRPM4, sequence (Q8TD43 whole entry): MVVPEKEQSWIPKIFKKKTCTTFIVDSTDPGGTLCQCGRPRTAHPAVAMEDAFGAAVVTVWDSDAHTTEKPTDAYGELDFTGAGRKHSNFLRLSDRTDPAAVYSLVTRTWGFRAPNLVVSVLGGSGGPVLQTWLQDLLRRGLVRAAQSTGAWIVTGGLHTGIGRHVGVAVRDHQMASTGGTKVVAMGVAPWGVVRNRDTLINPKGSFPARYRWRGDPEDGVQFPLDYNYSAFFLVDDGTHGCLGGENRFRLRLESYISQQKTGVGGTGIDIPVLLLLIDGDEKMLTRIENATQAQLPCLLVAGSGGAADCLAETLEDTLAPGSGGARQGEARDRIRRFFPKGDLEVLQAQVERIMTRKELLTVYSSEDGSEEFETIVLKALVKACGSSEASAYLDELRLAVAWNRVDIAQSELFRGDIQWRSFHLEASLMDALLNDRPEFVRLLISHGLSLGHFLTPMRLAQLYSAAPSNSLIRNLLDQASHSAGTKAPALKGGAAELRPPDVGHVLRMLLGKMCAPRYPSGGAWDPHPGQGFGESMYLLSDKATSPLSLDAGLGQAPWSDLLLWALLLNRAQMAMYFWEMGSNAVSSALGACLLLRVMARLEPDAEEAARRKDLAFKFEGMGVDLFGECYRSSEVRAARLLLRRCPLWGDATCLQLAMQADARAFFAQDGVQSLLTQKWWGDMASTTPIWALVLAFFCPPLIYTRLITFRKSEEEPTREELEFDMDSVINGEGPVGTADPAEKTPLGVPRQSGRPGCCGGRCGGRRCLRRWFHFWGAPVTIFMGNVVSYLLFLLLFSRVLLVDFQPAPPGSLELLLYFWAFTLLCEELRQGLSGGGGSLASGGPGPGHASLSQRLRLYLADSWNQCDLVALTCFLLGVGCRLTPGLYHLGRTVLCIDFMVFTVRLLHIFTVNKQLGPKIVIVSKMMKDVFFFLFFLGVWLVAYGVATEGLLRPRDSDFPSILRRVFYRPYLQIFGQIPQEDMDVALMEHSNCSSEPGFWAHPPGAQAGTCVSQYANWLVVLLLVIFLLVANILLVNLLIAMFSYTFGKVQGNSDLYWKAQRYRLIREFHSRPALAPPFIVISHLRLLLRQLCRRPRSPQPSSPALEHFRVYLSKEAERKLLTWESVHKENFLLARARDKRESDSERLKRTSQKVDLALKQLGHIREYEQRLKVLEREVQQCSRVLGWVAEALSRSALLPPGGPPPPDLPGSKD
potassium channel human Ether-a-go-go Related Gene (hERG), sequence (Q12809 whole entry): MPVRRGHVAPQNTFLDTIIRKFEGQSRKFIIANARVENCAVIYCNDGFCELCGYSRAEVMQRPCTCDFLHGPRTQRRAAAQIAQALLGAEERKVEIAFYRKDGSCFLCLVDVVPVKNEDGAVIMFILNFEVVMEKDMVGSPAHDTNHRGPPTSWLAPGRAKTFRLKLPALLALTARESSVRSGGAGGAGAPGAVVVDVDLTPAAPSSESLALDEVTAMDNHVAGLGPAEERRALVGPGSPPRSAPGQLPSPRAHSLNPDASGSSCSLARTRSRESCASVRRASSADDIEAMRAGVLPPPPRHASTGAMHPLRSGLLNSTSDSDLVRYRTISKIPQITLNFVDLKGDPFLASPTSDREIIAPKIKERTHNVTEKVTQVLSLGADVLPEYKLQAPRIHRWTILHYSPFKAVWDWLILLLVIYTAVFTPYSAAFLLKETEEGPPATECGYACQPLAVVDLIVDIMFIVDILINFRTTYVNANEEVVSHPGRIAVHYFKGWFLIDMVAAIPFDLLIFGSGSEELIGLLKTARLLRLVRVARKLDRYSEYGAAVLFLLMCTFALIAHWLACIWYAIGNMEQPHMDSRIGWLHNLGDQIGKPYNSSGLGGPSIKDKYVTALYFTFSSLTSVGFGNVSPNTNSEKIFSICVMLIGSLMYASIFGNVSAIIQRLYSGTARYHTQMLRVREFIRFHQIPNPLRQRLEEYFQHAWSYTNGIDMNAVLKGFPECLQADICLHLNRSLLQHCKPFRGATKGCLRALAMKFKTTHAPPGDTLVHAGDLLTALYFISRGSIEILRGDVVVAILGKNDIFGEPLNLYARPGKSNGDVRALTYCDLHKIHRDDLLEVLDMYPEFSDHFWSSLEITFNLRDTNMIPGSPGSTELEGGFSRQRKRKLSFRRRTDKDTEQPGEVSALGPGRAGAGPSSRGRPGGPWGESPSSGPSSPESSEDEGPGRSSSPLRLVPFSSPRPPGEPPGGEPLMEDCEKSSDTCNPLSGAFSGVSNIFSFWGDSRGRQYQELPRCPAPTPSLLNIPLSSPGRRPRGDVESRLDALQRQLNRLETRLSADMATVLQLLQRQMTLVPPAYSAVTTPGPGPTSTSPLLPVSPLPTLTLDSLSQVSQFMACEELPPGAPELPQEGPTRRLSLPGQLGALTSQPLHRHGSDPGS

c1ccc(-c2ccccc2NCc2nc3ccccc3o2)cc1 [CMP009]
IC50 [1]: 0.55 µM

O=c1cc(NC2CCCCCC2)nc2ccc(Cl)cn12 [CMP111]
IC50 [1]: 0.17 µM and 0.11 µM

O=C(O)c1cc(Br)ccc1NS(=O)(=O)c1ccc(Cl)cc1 [CMP116]
IC50 [2]: > 30 µM | IC50 [1]: 1.87 µM

c1ccc(CSCc2cn3ccsc3n2)cc1 [CMP133]
IC50 [1]: 0.28 µM

Cc1noc(-c2csc(S(=O)(=O)Nc3ccccc3C(F)(F)F)c2)c1C [CMP157]
half-life [3, 11]: 3.9 h | half-life [3, 12]: 4.2 h | half-life [3, 13]: 3.3 h | half-life [3, 14]: 3.5 h | half-life [3, 15]: 2.9 h | half-life [3, 16]: 2.8 h | IC50 [1]: 0.36 µM

Nc1nnc(Cc2cccc(Br)c2)s1 [CMP225]
EC50 [1]: 1.34 µM

Oc1ccccc1NCc1nc2ccccc2o1 [CMP311]
EC50 [1]: 3.24 µM

COc1ccccc1-c1ccccc1NCc1nc2ccccc2o1 [CMP320]
IC50 [1]: 0.82 µM

Cc1ccc(-c2ccccc2NCc2nc3ccccc3o2)s1 [CMP354]
CLint scaled at 1 μM [4]: > 900 mL/min/kg | CLint scaled at 1 μM [5]: 460 mL/min/kg | IC50 ([6]; TDI, read-out: Cyp IC50 TDI 3A4): > 50 µM | IC50 ([6]; read-out: Cyp IC50 3A4): > 50 µM | half-life [3, 11]: 2.6 h | half-life [3, 12]: 1.6 h | half-life [3, 13]: 4.3 h | half-life [3, 14]: 4.8 h | half-life [3, 15]: 4.5 h | half-life [3, 16]: 1.5 h | IC50 [7]: > 10 µM | IC50 [2]: > 10 µM | IC50 [8]: > 50 µM

Nc1cccc(-c2ccccc2NCc2nc3ccccc3o2)c1 [CMP465]
CLint scaled at 1 μM [4]: 393 mL/min/kg | CLint scaled at 1 μM [5]: 216 mL/min/kg | Papp at 16 h, 200 μM [9]: 37.9 ×10⁻⁶ cm/s | IC50 [2]: > 30 µM | IC50 [8]: > 50 µM | Papp at 120 min, 10 μM [10]: 18.9 ×10⁻⁶ cm/s

CNc1ccc(-c2ccccc2NCc2nc3ccccc3o2)cc1 [CMP470]
CLint scaled at 1 μM [4]: 900 mL/min/kg | CLint scaled at 1 μM [5]: 225 mL/min/kg | Papp at 16 h, 200 μM [9]: 22 ×10⁻⁶ cm/s | IC50 [2]: > 30 µM | IC50 [8]: > 50 µM

CCCNc1cccc(-c2ccccc2NCc2nc3ccccc3o2)c1 [CMP471]
IC50 ([6]; human, pH 7.4): > 50 µM | PAMPA perm. [9]: no detection | IC50 [2]: > 30 µM | IC50 ([8]; human, pH 7.4): > 50 µM

O=C(CCc1ccccc1)Nc1ccc(Cl)cc1C(=O)O [CMP493]
IC50 [2]: > 30 µM | IC50 [1]: 0.53 µM

O=C(CCc1ccccc1)Nc1ccc(C(F)(F)F)cc1C(=O)O [CMP502]
IC50 [2]: > 30 µM | IC50 [1]: 0.6 µM

O=C(CCc1ccccc1Cl)Nc1ccc(Br)cc1C(=O)O [CMP510]
IC50 [2]: 19 µM | IC50 [1]: 0.72 µM

O=C(CCc1cccc(Cl)c1)Nc1ccc(Br)cc1C(=O)O [CMP512]
IC50 [2]: 0.94 µM | IC50 [1]: 0.41 µM
